# Results: patent US9914730B2, “Azaquinazoline inhibitors of Atypical protein Kinase C” (Ignyta, Inc., priority 2012, dated 2018)
# Target: T1, full-length human PKCι (Homo sapiens, UniProt P41743)
# T1 construct: Recombinant, full-length human PKCι expressed in Sf21 insect cells is also commercially available; purchased; host or cells: Sf21 insect cells
# T1 sequence (P41743 1-596): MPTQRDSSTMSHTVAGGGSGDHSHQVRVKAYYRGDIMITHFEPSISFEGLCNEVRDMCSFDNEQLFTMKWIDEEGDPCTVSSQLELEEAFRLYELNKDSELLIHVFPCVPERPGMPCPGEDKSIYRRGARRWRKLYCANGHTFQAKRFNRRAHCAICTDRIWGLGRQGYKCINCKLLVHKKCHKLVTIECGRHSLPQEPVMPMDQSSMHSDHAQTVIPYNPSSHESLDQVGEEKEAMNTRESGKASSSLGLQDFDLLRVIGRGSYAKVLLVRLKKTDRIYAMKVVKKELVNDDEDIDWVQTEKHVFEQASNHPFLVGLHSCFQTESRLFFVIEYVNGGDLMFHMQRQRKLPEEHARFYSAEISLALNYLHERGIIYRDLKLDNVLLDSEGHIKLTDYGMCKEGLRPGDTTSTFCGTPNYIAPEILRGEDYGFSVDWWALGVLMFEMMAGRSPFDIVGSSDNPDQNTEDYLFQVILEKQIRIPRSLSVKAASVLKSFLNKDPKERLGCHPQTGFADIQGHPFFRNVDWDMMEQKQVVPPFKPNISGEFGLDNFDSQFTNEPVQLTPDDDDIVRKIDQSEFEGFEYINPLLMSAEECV
# Assay: PKCι IC50 IMAP assay, full-length PKCι at 150 μM ATP
# Type: biochemical
# Conditions: read-out: IC50 in IMAP assay against full length PKCi at 150 μM ATP
# Method in brief: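 Full-length hPKCι (Sf21) ~15 pM; 5FAM-peptide 100 nM; ATP 150 μM (5× KM^APP); tris pH7.5/MgCl2/EGTA/DTT/Triton, 4% DMSO; 60 min RT; IMAP stop, 2 h; FP 485/530 nm; IC50 from % inhibition curves.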
row,IC50,Structure (SMILES)
1,100 to 1000 nM,"COc1cncc2nc(-c3ccnc(Nc4ccccc4)c3)nc(N3CCC(O)C(O)C3)c12 (single isomer, unassigned) [Example 456, (3S,4S)-1-[5-Methoxy-2-(2-phenylamino-pyridin-4-yl)-pyrido[3,4-d]pyrimidin-4-yl]-piperidine-3,4-diol or (3R,4R)-1-[5-Methoxy-2-(2-phenylamino-pyridin-4-yl)-pyrido[3,4-d]pyrimidin-4-yl]-piperidine-3,4-diol]"
2,< 100 nM,"COc1cncc2nc(-c3ccnc(Nc4ccccc4)c3)nc(N3CCNCC3)c12 [Example 200, [4-(5-Methoxy-4-piperazin-1-yl-pyrido[3,4-d]pyrimidin-2-yl)-pyridin-2-yl]-phenyl-amine]"
3,1000 to 10000 nM,"COc1cncc2nc(-c3ccnc(Nc4cc(C#N)ccn4)c3)nc(N3CCC[C@@H](O)C3)c12 [Example 429, 2-{4-[4-((R)-3-Hydroxy-piperidin-1-yl)-5-methoxy-pyrido[3,4-d]pyrimidin-2-yl]-pyridin-2-ylamino}-isonicotinonitrile]"
4,< 100 nM,"N[C@H](CNc1nc(-c2ccncc2)nc2c(-c3ccn[nH]3)nccc12)Cc1ccccc1 [Example 89, N-[(2S)-2-amino-3-phenylpropyl]-8-(1H-pyrazol-5-yl)-2-(pyridin-4-yl)pyrido[3,4-d]-pyrimidin-4-amine]"
5,10000 to 40000 nM,"NC(=O)N1CCN(c2nc(-c3ccncc3)nc3cnccc23)CC1 [Example 56, 4-[2-(pyridin-4-yl)-pyrido[3,4-d]-pyrimidin-4-yl]-piperazine-1-carboxamide]"
6,< 100 nM,"Fc1ccnc(Nc2cc(-c3nc(N4CCNCC4)c4c(C5CCC5)cncc4n3)ccn2)c1 [Example 785, [4-(5-Cyclobutyl-4-piperazin-1-yl-pyrido[3,4-d]pyrimidin-2-yl)-pyridin-2-yl]-(4-fluoro-pyridin-2-yl)-amine]"
7,100 to 1000 nM,"COc1cncc2nc(-c3ccnc(NC(=O)[C@@H](C)c4ccccc4)c3)nc(N3CCNCC3)c12 [Example 409, (S)-N-[4-(5-Methoxy-4-piperazin-1-yl-pyrido[3,4-d]pyrimidin-2-yl)-pyridin-2-yl]-2-phenyl-propionamide]"
8,< 100 nM,"Fc1cccc(F)c1Nc1cc(-c2nc(NC3CCCNC3)c3c(C4CC4)cncc3n2)ccn1 (centres unmarked) [Example 842, {5-Cyclopropyl-2-[2-(2,6-difluoro-phenylamino)-pyridin-4-yl]-pyrido[3,4-d]pyrimidin-4-yl}-piperidin-3-yl-amine]"
9,1000 to 10000 nM,"CCOc1cccc(-c2nccc3c(NC[C@@H](N)Cc4ccccc4)nc(-c4ccncc4)nc23)c1 [Example 117, N-[(2S)-2-amino-3-phenylpropyl]-8-(3-ethoxy-phenyl)-2-(pyridin-4-yl)-pyrido[3,4-d]-pyrimidin-4-amine]"
10,100 to 1000 nM,"COc1ccccc1-c1nccc2c(NC[C@@H](N)Cc3ccccc3)nc(-c3ccncc3)nc12 [Example 93, N-[(2S)-2-amino-3-phenylpropyl]-8-(2-methoxy-phenyl)-2-(pyridin-4-yl)-pyrido[3,4-d]-pyrimidin-4-amine]"
11,1000 to 10000 nM,"CNC(=O)C1CCN(c2nc(-c3ccnc(Nc4c(F)cccc4F)c3)nc3cncc(C4CC4)c23)CC1 [Example 669, 1-{5-Cyclopropyl-2-[2-(2,6-difluoro-phenylamino)-pyridin-4-yl]-pyrido[3,4-d]pyrimidin-4-yl}-piperidine-4-carboxylic acid methylamide]"
12,1000 to 10000 nM,"O=C(NCCF)C1CCN(c2nc(-c3ccnc(Nc4c(F)cccc4F)c3)nc3cncc(C4CC4)c23)CC1 [Example 658, 1-{5-Cyclopropyl-2-[2-(2,6-difluoro-phenylamino)-pyridin-4-yl]-pyrido[3,4-d]pyrimidin-4-yl}-piperidine-4-carboxylic acid (2-fluoro-ethyl)-amide]"
13,< 100 nM,"c1ccc(Nc2cc(-c3nc(N4CCCNCC4)c4c(C5CC5)cncc4n3)ccn2)cc1 [Example 632, [4-(5-Cyclopropyl-4-[1,4]diazepan-1-yl-pyrido[3,4-d]pyrimidin-2-yl)-pyridin-2-yl]-phenyl-amine]"
14,< 100 nM,"Cc1ccc(Nc2cc(-c3nc(N4CCNCC4)c4c(C5CC5)cncc4n3)ccn2)c(F)c1 [Example 575, [4-(5-Cyclopropyl-4-piperazin-1-yl-pyrido[3,4-d]pyrimidin-2-yl)-pyridin-2-yl]-(2-fluoro-4-methyl-phenyl)-amine]"
15,< 100 nM,"OC1CN(c2nc(-c3ccnc(Nc4cccc(N5CCNCC5)c4)c3)nc3cncc(C4CC4)c23)C1 [Example 778, 1-{5-Cyclopropyl-2-[2-(3-piperazin-1-yl-phenylamino)-pyridin-4-yl]-pyrido[3,4-d]pyrimidin-4-yl}-azetidin-3-ol]"
16,100 to 1000 nM,"OC[C@H](O)CN1CCN(c2nc(-c3ccnc(Nc4ccccc4)c3)nc3cncc(C4CC4)c23)CC1 [Example 608, (R)-3-{4-[5-Cyclopropyl-2-(2-phenylamino-pyridin-4-yl)-pyrido[3,4-d]pyrimidin-4-yl]-piperazin-1-yl}-propane-1,2-diol]"
17,< 100 nM,"CN(c1nc(-c2ccnc(Nc3c(F)cccc3F)c2)nc2cncc(C3CC3)c12)C1CCNC1 (centres unmarked) [Example 2025, {5-Cyclopropyl-2-[2-(2,6-difluoro-phenylamino)-pyridin-4-yl]-pyrido[3,4-d]pyrimidin-4-yl}-methyl-pyrrolidin-3-yl-amine]"
18,< 100 nM,"COc1cncc2nc(-c3ccnc(NC(=O)Cc4ccc(N)cc4)c3)nc(N[C@@H]3CCNC3)c12 [Example 327, 2-(4-Amino-phenyl)-N-{4-[5-methoxy-4-((R)-pyrrolidin-3-ylamino)-pyrido[3,4-d]pyrimidin-2-yl]-pyridin-2-yl}-acetamide]"
19,100 to 1000 nM,"CC(=O)NC1CCN(c2nc(-c3ccnc(Nc4c(F)cccc4F)c3)nc3cncc(C4CC4)c23)C1 (centres unmarked) [Example 713, N-(1-{5-Cyclopropyl-2-[2-(2,6-difluoro-phenylamino)-pyridin-4-yl]-pyrido[3,4-d]pyrimidin-4-yl}-pyrrolidin-3-yl)-acetamide]"
20,< 100 nM,"COc1cncc2nc(-c3ccnc(Nc4ccc(-c5ccccc5)nc4)c3)nc(N3CCNCC3)c12 [Example 392, [4-(5-Methoxy-4-piperazin-1-yl-pyrido[3,4-d]pyrimidin-2-yl)-pyridin-2-yl]-(6-phenyl-pyridin-3-yl)-amine]"
21,100 to 1000 nM,"NC[C@H](Cc1ccccc1)Nc1nc(-c2ccncc2)nc2cnccc12 [Example 28, N-[(2S)-1-amino-3-phenylpropan-2-yl]-2-(pyridin-4-yl)-pyrido[3,4-d]-pyrimidin-4-amine]"
22,< 100 nM,"Fc1cccc(Cl)c1Nc1cc(-c2nc(N3CCNCC3)c3c(C4CC4)cncc3n2)ccn1 [Example 616, (2-Chloro-6-fluoro-phenyl)-[4-(5-cyclopropyl-4-piperazin-1-yl-pyrido[3,4-d]pyrimidin-2-yl)-pyridin-2-yl]-amine]"
23,10000 to 40000 nM,"COC(=O)[C@@H]1C[C@H](Nc2nc(-c3ccncc3)nc3cnccc23)CN1 [Example 39, methyl (2S,4S)-4-{[2-(pyridin-4-yl)pyrido[3,4-d]-pyrimidin-4-yl]-amino}pyrrolidine-2-carboxylate]"
24,< 100 nM,"FC(F)(F)c1cccc(Nc2cc(-c3nc(N4CCNCC4)c4c(C5CC5)cncc4n3)ccn2)n1 [Example 534, [4-(5-Cyclopropyl-4-piperazin-1-yl-pyrido[3,4-d]pyrimidin-2-yl)-pyridin-2-yl]-(6-trifluoromethyl-pyridin-2-yl)-amine]"
25,< 100 nM,"Fc1cc(F)c2nc(Nc3cc(-c4nc(N5CCNCC5)c5c(C6CC6)cncc5n4)ccn3)nn2c1 [Example 2040, [4-(5-Cyclopropyl-4-piperazin-1-yl-pyrido[3,4-d]pyrimidin-2-yl)-pyridin-2-yl]-(6,8-difluoro-[1,2,4]triazolo[1,5-a]pyridin-2-yl)-amine]"
26,100 to 1000 nM,"Fc1cccc(F)c1Nc1cc(-c2nc(N3CCCNCC3)c3c(C4CC4)cncc3n2)ccn1 [Example 702, [4-(5-Cyclopropyl-4-[1,4]diazepan-1-yl-pyrido[3,4-d]pyrimidin-2-yl)-pyridin-2-yl]-(2,6-difluoro-phenyl)-amine]"
27,< 100 nM,"COc1cncc2nc(-c3ccnc(Nc4cccc(C)n4)c3)nc(N3CCNCC3)c12 [Example 415, [4-(5-Methoxy-4-piperazin-1-yl-pyrido[3,4-d]pyrimidin-2-yl)-pyridin-2-yl]-(6-methyl-pyridin-2-yl)-amine]"
28,10000 to 40000 nM,"N#Cc1ccc(Nc2cc(-c3nc(N4CCNCC4)c4c(Cl)cncc4n3)ccn2)cn1 [Example 260, 5-[4-(5-Chloro-4-piperazin-1-yl-pyrido[3,4-d]pyrimidin-2-yl)-pyridin-2-ylamino]-pyridine-2-carbonitrile]"
29,100 to 1000 nM,"c1cc(-c2nc(N3CCNCC3)c3c(C4CCC4)cncc3n2)c2c3c([nH]c2n1)CCCC3 [Example 2199, 4-(5-Cyclobutyl-4-piperazin-1-yl-pyrido[3,4-d]pyrimidin-2-yl)-6,7,8,9-tetrahydro-5H-pyrido[2,3-b]indole]"
